# In US10947213B1 (Merck Patent GmbH, priority 2015, dated 2021):
# pIC50: −log10 of the molar value. Where a name gives a salt, the structure may show the parent alone.
# Biological target: T1, TLR7/NFKb HEK cells (Homo sapiens, UniProt Q9NYK1)
# T1 construct: expressed in transfected cells; host or cells: HEK cells (TLR7/NFKb reporter line)
# T1 sequence (Q9NYK1 27-1049): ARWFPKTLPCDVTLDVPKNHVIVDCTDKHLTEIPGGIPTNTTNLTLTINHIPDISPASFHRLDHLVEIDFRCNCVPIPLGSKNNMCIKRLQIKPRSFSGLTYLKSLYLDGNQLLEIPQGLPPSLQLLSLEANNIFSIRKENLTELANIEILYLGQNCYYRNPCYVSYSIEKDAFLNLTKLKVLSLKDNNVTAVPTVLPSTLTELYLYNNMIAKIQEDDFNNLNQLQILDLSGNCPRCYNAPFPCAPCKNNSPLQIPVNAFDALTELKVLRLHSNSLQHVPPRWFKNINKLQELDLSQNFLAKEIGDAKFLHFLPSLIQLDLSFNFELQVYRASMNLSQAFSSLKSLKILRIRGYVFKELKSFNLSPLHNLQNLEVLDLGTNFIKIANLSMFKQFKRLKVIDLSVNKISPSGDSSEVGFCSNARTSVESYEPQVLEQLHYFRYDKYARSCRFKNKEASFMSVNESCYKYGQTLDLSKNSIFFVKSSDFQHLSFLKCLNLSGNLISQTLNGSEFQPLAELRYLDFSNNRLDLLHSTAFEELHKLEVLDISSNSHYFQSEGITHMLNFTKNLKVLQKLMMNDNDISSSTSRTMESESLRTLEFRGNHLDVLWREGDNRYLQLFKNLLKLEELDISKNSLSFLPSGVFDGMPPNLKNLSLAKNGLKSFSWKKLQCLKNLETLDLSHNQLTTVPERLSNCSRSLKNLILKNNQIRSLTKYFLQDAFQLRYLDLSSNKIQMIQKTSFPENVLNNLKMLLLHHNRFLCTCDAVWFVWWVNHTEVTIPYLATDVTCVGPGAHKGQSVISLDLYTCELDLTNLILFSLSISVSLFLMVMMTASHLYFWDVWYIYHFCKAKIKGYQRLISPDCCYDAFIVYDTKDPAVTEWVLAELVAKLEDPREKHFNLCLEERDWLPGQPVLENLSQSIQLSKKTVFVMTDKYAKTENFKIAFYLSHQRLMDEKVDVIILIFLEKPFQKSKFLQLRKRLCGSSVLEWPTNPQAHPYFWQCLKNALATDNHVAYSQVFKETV
# Assay: HEK Cell Assay (TLR7/NFKb reporter, Steady-Glo luciferase readout)
# Assay type: cell-based
# Settings: 30 min compound preincubation, then R*48 agonist for 5 hours, read-out: Potency
# How it was run: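 Steady-Glo luminescence after 5 h stimulation with R*48 agonist, following 30 min compound preincubation. Assay run in HEK cells carrying a TLR7/NFKb luciferase reporter, plated at 5000 cells/well and grown 24 h at 37° C (10% CO2) before treatment.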
row,pIC50,SMILES
1,5.00 to 6.00,"CCN(CC)CCNCC1CCN(c2ccnc3cc(C(F)(F)F)ccc23)CC1 [Compound 376, N,N-Diethyl-N′-[1-(7-trifluoromethyl-quinolin-4-yl)-piperidin-4-ylmethyl]-ethane-1,2-diamine]"
2,> 6.00,"C[C@H]1C[C@@H](NC(=O)CC2CNC2)CN(c2ccc(C(F)(F)F)c3ncccc23)C1 [Compound 288, 2-(azetidin-3-yl)-N-[(3R,5S)-5-methyl-1-[8-(trifluoromethyl)quinolin-5-yl]piperidin-3-yl]acetamide]"
3,5.00 to 6.00,"N#Cc1ccc(N2CCC(C(=O)NCCN3CCOCC3)CC2)c2cccnc12 [Compound 419, 1-(8-Cyano-quinolin-5-yl)-piperidine-4-carboxylic Acid (2-morpholin-4-yl-ethyl)-amide]"
4,> 6.00,"N[C@H]1C[C@@H](C2CC2)CN(c2ccc(F)c3ncccc23)C1 (relative stereo) [Compound 333, cis-5-cyclopropyl-1-(8-fluoroquinolin-5-yl)piperidin-3-amine]"
5,> 6.00,"CC(C(=O)N[C@@H]1C[C@H](C)CN(c2ccc(C(F)(F)F)c3nccnc23)C1)N1CC(N)C1 (single isomer, unassigned) [Compound 369]"
6,5.00 to 6.00,"Cc1ccc(N2C[C@@H](C)C[C@@H](NC(=O)CN3CCOCC3)C2)c2cccnc12 [Compound 466, N-[(3R,5S)-5-Methyl-1-(8-methyl-quinolin-5-yl)-piperidin-3-yl]-2-morpholin-4-yl-acetamide]"
7,5.00 to 6.00,"C[C@H]1C[C@@H](NC(=O)CN2CCC(F)(F)CC2)CN(c2ccc(C(F)(F)F)c3nccnc23)C1 [Compound 354, 2-(4,4-difluoropiperidin-1-yl)-N-[(3R,5S)-5-methyl-1-[8-(trifluoromethyl)quinoxalin-5-yl]piperidin-3-yl]acetamide]"
8,> 6.00,"CN1CCC(CC(=O)NC2CN(c3ccc(C#N)c4nccnc34)CC(F)(F)C2)CC1 (single isomer, unassigned) [Compound 523]"
9,> 6.00,"CN1CCC(NC(=O)C2CN(c3ccc(C#N)c4ncccc34)CC(F)(F)C2)CC1 (stereo not drawn) [Compound 530, 1-(8-Cyano-quinolin-5-yl)-5,5-difluoro-piperidine-3-carboxylic acid (1-methyl-piperidin-4-yl)-amide]"
10,5.00 to 6.00,"CCN(CC)C(=O)CCC(=O)N[C@@H]1C[C@H](C)CN(c2ccc(C(F)(F)F)c3ncccc23)C1 [Compound 575, N,N-Diethyl-N′-[(3R,5S)-5-methyl-1-(8-trifluoromethyl-quinolin-5-yl)-piperidin-3-yl]-succinamide]"
11,> 6.00,"C[C@H]1C[C@@H](NC(=O)[C@H](C)N(C)C)CN(c2ccc(C(F)(F)F)c3ncccc23)C1 [Compound 526, (S)-2-Dimethylamino-N-[(3R,5S)-5-methyl-1-(8-trifluoromethyl-quinolin-5-yl)-piperidin-3-yl]-propionamide]"
12,< 5.00,"COc1cccc(NCC(=O)NCC2CCN(c3ccnc4nccnc34)CC2)c1 [Compound 404, 2-(3-Methoxy-phenylamino)-N-(1-pyrido[2,3-b]pyrazin-8-yl-piperidin-4-ylmethyl)-acetamide]"
13,5.00 to 6.00,"CCN(CC)CCNCC1CCN(c2ccnc3ccc(C)cc23)CC1 [Compound 384, N,N-Diethyl-N′-[1-(6-methyl-quinolin-4-yl)-piperidin-4-ylmethyl]-ethane-1,2-diamine]"
14,> 6.00,"Cc1ncc(N2C[C@@H](C)C[C@@H](NC(=O)[C@H](N)C3CC3)C2)c2cccnc12 [Compound 561, (R)-2-Amino-2-cyclopropyl-N-[(3R,5S)-5-methyl-1-(8-methyl-[1,7]naphthyridin-5-yl)-piperidin-3-yl]-acetamide]"

# More lines, now with the values behind:
row,SMILES,pIC50
1,"C[C@H]1C[C@@H](NC(=O)[C@H](N)c2ccccc2)CN(c2ccc(C#N)c3nccnc23)C1 [Compound 119, (2R)-2-amino-N-[(3R,5S)-1-(8-cyanoquinoxalin-5-yl)-5-methylpiperidin-3-yl]-2-phenylacetamide]",> 6.00
2,C[C@H]1C[C@@H](NC(=O)CN2CC(O)C2)CN(c2ccc(C(F)(F)F)c3ncccc23)C1 [Compound 284],> 6.00
3,"CC(C)[C@H](O)C(=O)N[C@@H]1C[C@H](C)CN(c2ccc(C(F)F)c3ncccc23)C1 [Compound 204, (2S)—N-[(3R,5S)-1-[8-(difluoromethyl)quinolin-5-yl]-5-methylpiperidin-3-yl]-2-hydroxy-3-methylbutanamide]",> 6.00
4,"COCC(=O)N[C@@H]1C[C@H](C)CN(c2ccc(C#N)c3nccnc23)C1 [Compound 134, N-[(3R,5S)-1-(8-cyanoquinoxalin-5-yl)-5-methylpiperidin-3-yl]-2-methoxyacetamide]",5.00 to 6.00
5,"C[C@H]1C[C@@H](N)CN(c2ccc(C(F)F)c3ncccc23)C1 [Compound 68, (3R,5S)-1-[8-(difluoromethyl)quinolin-5-yl]-5-methylpiperidin-3-amine]",> 6.00
6,"C[C@H]1C[C@@H](NC(=O)CC(O)C(C)(C)C)CN(c2ccnc3nccnc23)C1 (single isomer, unassigned) [Compound 149]",< 5.00
7,"C[C@H]1C[C@@H](NC(=O)CC2CCCN(C)C2)CN(c2ccc(C#N)c3nccnc23)C1 (stereo partly drawn) [Compound 266, N-[(3R,5S)-1-(8-cyanoquinoxalin-5-yl)-5-methylpiperidin-3-yl]-2-(1-methylpiperidin-3-yl)acetamide hydrochloride]",> 6.00
8,C[C@H]1C[C@@H](NC(=O)CN2CC(O)C2)CN(c2ccc(C#N)c3nccnc23)C1 [Compound 270],> 6.00
9,"CC(C)C(C)C(=O)N[C@@H]1C[C@H](C)CN(c2ccc(C#N)c3nccnc23)C1 (stereo partly drawn) [Compound 167, N-[(3R,5S)-1-(8-cyanoquinoxalin-5-yl)-5-methylpiperidin-3-yl]-2,3-dimethylbutanamide]",> 6.00
10,N[C@@H]1C[C@H](C(F)(F)F)CN(c2ccnc3nccnc23)C1 (racemic) [Compound 84],5.00 to 6.00
11,"COCCN[C@H]1C[C@@H](C(F)(F)F)CN(c2ccc(C#N)c3nccnc23)C1 (relative stereo) [Compound 221, cis-8-[3-[(2-methoxyethyl)amino]-5-(trifluoromethyl)piperidin-1-yl]quinoxaline-5-carbonitrile]",5.00 to 6.00
12,"COC(C)C(=O)N[C@@H]1C[C@H](C)CN(c2ccc(C#N)c3nccnc23)C1 (single isomer, unassigned) [Compound 158]",5.00 to 6.00
13,"C[C@H]1C[C@@H](NC(=O)C2(N)COC2)CN(c2ccc(C#N)c3nccnc23)C1 [Compound 129, 3-amino-N-[(3R,5S)-1-(8-cyanoquinoxalin-5-yl)-5-methylpiperidin-3-yl]oxetane-3-carboxamide]",5.00 to 6.00
14,"C[C@H]1C[C@@H](NC(=O)CN(C)C)CN(c2ccc(C(F)(F)F)c3ncccc23)C1 [Compound 199, 2-(dimethylamino)-N-[(3R,5S)-5-methyl-1-[8-(trifluoromethyl)quinolin-5-yl]piperidin-3-yl]acetamide]",> 6.00
15,"C[C@H]1C[C@@H](NC(=O)C(N)C(F)(F)F)CN(c2ccc(C#N)c3nccnc23)C1 (single isomer, unassigned) [Compound 113, hydrochloride]",> 6.00
16,"Cn1ncc2c(N3CCC(C(=O)NCCN4CCCCC4)CC3)ncnc21 [Compound 3, 1-(1-methyl-1H-pyrazolo[3,4-d]pyrimidin-4-yl)-N-(2-(piperidin-1-yl)ethyl)piperidine-4-carboxamide]",5.00 to 6.00
